# Results reported in patent US20210386367A1, “DEVICES AND SYSTEMS FOR GASTROINTESTINAL MICROBIOME DETECTION AND MANIPULATION” (Progenity, Inc., priority 2018, published 2021).
# Entries after “also recorded” stand apart in the source; their conditions may differ. Like-named read-outs stand apart in the source and are kept apart here.
# How the values were obtained:
# [1] = tested on: Prevotella spp.; assay: Agar dilution MIC, 30 clinical isolates; format: cell-based; details: for Mode: modal MIC
# [2] = tested on: S. agalactiae ATCC 13813; assay: Broth microdilution MIC (time-kill study); format: cell-based, Streptococcus agalactiae
# [3] = tested on: Streptococcus spp.; assay: Spontaneous mutation frequency assay; format: cell-based; details: for Spontaneous Mutation Frequency: selection at 4× and 8× MIC
# Protocol: Initial values of the MIC were determined by agar dilution in accordance with guidelines from the Clinical and Laboratory Standards Institute (CLSI; (1) “Methods for Dilution Antimicrobial Susceptibility Tests for Bacteria That Grow Aerobically; Approved Standard; 11th ed.,” CLSI standard M07, 2018; (2) “Methods for Antimicrobial Susceptibility Testing of Anaerobic Bacteria; Approved Standard—Eighth Edition,” CLSI document M11-A8, 2012.).
# The agar plates were prepared by mixing a ratio of 1.0 mL of concentrated drug to 49.0 mL of the appropriate molten (47° C.) agar; the drug-supplemented agar was mixed, poured into 15-by-150 mm petri dishes and allowed to solidify and dry at room temperature prior to inoculation. […] Each plate was allowed to cool at room temperature for at least 1 hr.
# The isolates were streaked onto the appropriate agar medium and incubated for 20 hr (aerobes) or 48 hr (Bacteroides under anaerobic conditions). Using a sterile swab, several well-isolated colonies were removed and resuspended in sterile saline at a heavy cell density. Each plate was inoculated with 0.5 mL of the cell suspension (each test concentration was inoculated in duplicate). The target inoculum for each spontaneous mutation plate was 10^9-10 CFU. In addition, a portion of the inoculum from each isolate was enumerated by making dilutions, spreading on agar and counting colonies.
# Once the inoculum was absorbed into the agar, the plates were incubated at 35° C. Aerobes were examined at 24 and 48 hr, and resulting colonies were counted. Bacteroides were incubated anaerobically for 48-72 hr in the anaerobe chamber and colonies were counted.
# Colony counts from plates used to enumerate the initial inoculum density and from the resulting spontaneous mutation frequency test plates were determined. The inoculum size was calculated as CFU inoculated per plate. The spontaneous mutation frequency was calculated using the counts from duplicate spontaneous mutation assay test plates as follows:
# If there were no colonies on the antibiotic selection plates, the spontaneous mutation frequency was reported as less than the frequency observed with one colony to indicate that the spontaneous mutation frequency was less than the limit of detection (one CFU). […] The mutation prevention concentration (MPC) was reported as the lowest concentration for which no mutants were selected.
# [4] = tested on: E. coli spontaneous mutants; assay: Broth microdilution MIC of spontaneous mutants; format: cell-based, Escherichia coli; details: for broth microdilution MIC of selected colonies relative to parent strain: colonies selected at 4× and 8× the MIC
# In short: (§1)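 Spontaneous mutants from drug selection plates were tested by CLSI broth microdilution in MHB II with two-fold serial drug dilutions. Inoculum was about 5×10^5 CFU/mL, incubated aerobically at 35° C. for 18-20 hr. MIC was the lowest concentration inhibiting visible growth.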
# [5] = tested on: Streptococcus spp. spontaneous mutants; assay: organism not typed; format: cell-based
# In short: as §1
# [6] = 30 Prevotella spp. clinical isolates
# [7] = S. agalacttae ATCC 13813 (so in the source)
# [8] = S. pneumoniae ATCC 49619, selected on rifaximin 4X MIC, Colony A
# [9] = S. pneumoniae ATCC 49619, selected on rifaximin 4X MIC, Colony B
# [10] = S. pneumoniae ATCC 49619, selected on rifaximin 8X MIC, Colony A
# [11] = S. pneumoniae ATCC 49619, selected on rifaximin 8X MIC, Colony B
# [12] = S. pneumoniae ATCC 49619 Parent
# [13] = S. pyogenes ATCC 49399, selected on rifaximin 4X MIC, Colony A
# [14] = S. pyogenes ATCC 49399, selected on rifaximin 4X MIC, Colony B
# [15] = S. pyogenes ATCC 49399, selected on rifaximin 8X MIC, Colony A
# [16] = S. pyogenes ATCC 49399, selected on rifaximin 8X MIC, Colony B
smiles,measurement,setting,value
C[C@@H](O)[C@H]1C(=O)N2C(C(=O)O)=C(S[C@@H]3CN[C@H](C(=O)N(C)C)C3)[C@H](C)[C@H]12 [meropenem],MIC range,[1],≤0.008 to 0.3 µg/mL
same,isolates susceptible,[1],All were susceptible
same,relative activity among drugs tested,[1],most active drug tested; also recorded: most active agent
same,% S,[1]; [6],100%
same,MIC50,[1]; [6],0.06 µg/mL
same,MIC90,[1]; [6],0.12 µg/mL
same,MIC range,[1]; [6],≤0.008 to 0.3 µg/mL
same,MIC50,"[1]; Prevotella, read-out: MIC50",0.06 µg/mL
same,MIC90,"[1]; Prevotella, read-out: MIC90",0.12 µg/mL
same,Mode,[1]; [6],0.06 µg/mL
same,MIC,[2]; [7],0.008 µg/mL
same,MIC,"[2]; Streptococcus agalactiae, ATCC13813, broth microdilution, read-out: MIC",0.008 µg/mL
same,colonies on selection plates,[3],No Streptococcus spp. or Bacteroides spp. colonies were selected
same,Spontaneous Mutation Frequency,[3],≤ 9.52×10^−10
same,MIC,"[4]; Escherichia coli, ATCC25922, E. coli ATCC 25922, selected on rifaximin 4X MIC, Colony A",0.008 µg/mL
same,MIC,"[4]; Escherichia coli, ATCC25922, E. coli ATCC 25922, selected on rifaximin 4X MIC, Colony B",0.008 µg/mL
same,MIC,"[4]; Escherichia coli, ATCC25922, E. coli ATCC 25922, selected on rifaximin 8X MIC, Colony A",0.008 µg/mL
same,MIC,"[4]; Escherichia coli, ATCC25922, E. coli ATCC 25922 Parent (Table 52)",0.03 µg/mL
same,MIC,"[4]; Escherichia coli, ATCC35218, E. coli ATCC 35218, selected on rifaximin 4X MIC, Colony A",0.015 µg/mL
same,MIC,"[4]; Escherichia coli, ATCC35218, E. coli ATCC 35218, selected on rifaximin 4X MIC, Colony B",0.015 µg/mL
same,MIC,"[4]; Escherichia coli, ATCC35218, E. coli ATCC 35218, selected on rifaximin 8X MIC, Colony A",0.015 µg/mL
same,MIC,"[4]; Escherichia coli, ATCC35218, E. coli ATCC 35218, selected on rifaximin 8X MIC, Colony B",0.015 µg/mL
same,MIC,"[4]; Escherichia coli, ATCC35218, E. coli ATCC 35218 Parent (Table 52)",0.015 µg/mL
same,MIC,"[4]; Escherichia coli, E. coli MMX 1312, selected on ceftriaxone 4X MIC, Colony A",0.015 µg/mL
same,MIC,"[4]; Escherichia coli, E. coli MMX 1312, selected on ceftriaxone 4X MIC, Colony B",0.015 µg/mL
same,MIC,"[4]; Escherichia coli, E. coli MMX 1312, selected on ceftriaxone 4X MIC, Colony C",0.03 µg/mL
same,MIC,"[4]; Escherichia coli, E. coli MMX 1312, selected on ceftriaxone 8X MIC, Colony A",0.015 µg/mL
same,MIC,"[4]; Escherichia coli, E. coli MMX 1312, selected on ceftriaxone 8X MIC, Colony B",0.03 µg/mL
same,MIC,"[4]; Escherichia coli, E. coli MMX 1312, selected on ceftriaxone 8X MIC, Colony C",0.03 µg/mL
same,MIC,"[4]; Escherichia coli, E. coli MMX 1312, selected on rifaximin 4X MIC, Colony A",0.008 µg/mL
same,MIC,"[4]; Escherichia coli, E. coli MMX 1312, selected on rifaximin 4X MIC, Colony B",0.008 µg/mL
same,MIC,"[4]; Escherichia coli, E. coli MMX 1312, selected on rifaximin 8X MIC, Colony A",0.015 µg/mL
same,MIC,"[4]; Escherichia coli, E. coli MMX 1312, selected on rifaximin 8X MIC, Colony B",0.015 µg/mL
same,MIC,"[4]; Escherichia coli, E. coli MMX 1312 Parent",0.015 µg/mL
same,MIC,"[4]; Escherichia coli, E. coli MMX 1312 Parent (Table 49)",0.015 µg/mL
same,MIC,"[4]; Escherichia coli, E. coli MMX 1312 Parent (Table 52)",0.015 µg/mL
same,MIC,"[4]; Escherichia coli, E. coli MMX 1312 mutant selected on meropenem 4X MIC, colony A",0.015 µg/mL
same,MIC,"[4]; Escherichia coli, E. coli MMX 1312 mutant selected on meropenem 4X MIC, colony B",0.015 µg/mL
same,MIC,"[4]; Escherichia coli, E. coli MMX 1312 mutant selected on meropenem 4X MIC, colony C",0.015 µg/mL
same,MIC,"[4]; Escherichia coli, E. coli MMX 1312 mutant selected on meropenem 8X MIC, colony A",0.015 µg/mL
same,MIC,"[4]; Escherichia coli, E. coli MMX 1312 mutant selected on meropenem 8X MIC, colony B",0.015 µg/mL
same,MIC,"[4]; Escherichia coli, E. coli MMX 1312 mutant selected on meropenem 8X MIC, colony C",0.015 µg/mL
same,broth microdilution MIC of selected colonies relative to parent strain,[4],consistent with that of the parent strain
same,MIC,[5]; [8],0.03 µg/mL
same,MIC,[5]; [9],0.03 µg/mL
same,MIC,[5]; [10],0.03 µg/mL
same,MIC,[5]; [11],0.03 µg/mL
same,MIC,[5]; [12],0.03 µg/mL
same,MIC,[5]; [13],0.002 µg/mL
same,MIC,[5]; [14],0.004 µg/mL
same,MIC,[5]; [15],0.004 µg/mL
same,MIC,[5]; [16],0.004 µg/mL
same,MIC,[5]; S. pyogenes ATCC 49399 Parent,0.004 µg/mL
same,MIC,"[5]; Streptococcus, ATCC13813, S. agaloctiae ATCC 13813, selected on rifaximin 4X MIC, Colony A",0.015 µg/mL
same,MIC,"[5]; Streptococcus, ATCC13813, S. agaloctiae ATCC 13813, selected on rifaximin 4X MIC, Colony B",0.015 µg/mL
same,MIC,"[5]; Streptococcus, ATCC13813, S. agaloctiae ATCC 13813, selected on rifaximin 8X MIC, Colony A",0.015 µg/mL
same,MIC,"[5]; Streptococcus, ATCC13813, S. agaloctiae ATCC 13813, selected on rifaximin 8X MIC, Colony B",0.03 µg/mL
same,MIC,"[5]; Streptococcus, ATCC13813, S. agaloctiae ATCC 13813 Parent",0.008 µg/mL
CO[C@H]1/C=C/O[C@@]2(C)Oc3c(C)c(O)c4c(O)c(c5c(nc6cc(C)ccn65)c4c3C2=O)NC(=O)/C(C)=C\C=C\[C@H](C)[C@H](O)[C@@H](C)[C@@H](O)[C@@H](C)[C@H](OC(C)=O)[C@@H]1C [rifaximin],MIC50,[1],0.12 µg/mL
same,MIC90,[1],1 µg/mL
same,MIC50,[1]; [6],0.12 µg/mL
same,MIC90,[1]; [6],1 µg/mL
same,MIC range,[1]; [6],0.03 to 32 µg/mL
same,Mode,[1]; [6],0.12 µg/mL
same,MIC,[2]; [7],0.25 µg/mL
same,MIC,[2]; broth microdilution,0.25 µg/mL
same,Spontaneous Mutation Frequency,[3],≥ 2.77×10^−8
same,Spontaneous Mutation Frequency,[3]; listed as rifampin,~10^−8
same,MIC,"[4]; E. coli MMX 1312, selected on ceftriaxone 4X MIC, Colony A",3 µg/mL
same,MIC,"[4]; E. coli MMX 1312, selected on ceftriaxone 4X MIC, Colony B",8 µg/mL
same,MIC,"[4]; E. coli MMX 1312, selected on ceftriaxone 4X MIC, Colony C",8 µg/mL
same,MIC,"[4]; E. coli MMX 1312, selected on ceftriaxone 8X MIC, Colony A",3 µg/mL
same,MIC,"[4]; E. coli MMX 1312, selected on ceftriaxone 8X MIC, Colony B",3 µg/mL
same,MIC,"[4]; E. coli MMX 1312, selected on ceftriaxone 8X MIC, Colony C",3 µg/mL
same,MIC,[4]; E. coli MMX 1312 Parent,8 µg/mL
same,MIC,[4]; E. coli MMX 1312 Parent (Table 49),8 µg/mL
same,MIC,"[4]; E. coli MMX 1312 mutant selected on meropenem 4X MIC, colony A",8 µg/mL
same,MIC,"[4]; E. coli MMX 1312 mutant selected on meropenem 4X MIC, colony B",8 µg/mL
same,MIC,"[4]; E. coli MMX 1312 mutant selected on meropenem 4X MIC, colony C",8 µg/mL
same,MIC,"[4]; E. coli MMX 1312 mutant selected on meropenem 8X MIC, colony A",8 µg/mL
same,MIC,"[4]; E. coli MMX 1312 mutant selected on meropenem 8X MIC, colony B",8 µg/mL
same,MIC,"[4]; E. coli MMX 1312 mutant selected on meropenem 8X MIC, colony C",4 µg/mL
same,broth microdilution MIC of selected colonies relative to parent strain,[4],several-fold higher
same,MIC,"[5]; S. agaloctiae ATCC 13813, selected on rifaximin 4X MIC, Colony A",>8 µg/mL
same,MIC,"[5]; S. agaloctiae ATCC 13813, selected on rifaximin 4X MIC, Colony B",>8 µg/mL
same,MIC,"[5]; S. agaloctiae ATCC 13813, selected on rifaximin 8X MIC, Colony A",>8 µg/mL
same,MIC,"[5]; S. agaloctiae ATCC 13813, selected on rifaximin 8X MIC, Colony B",>8 µg/mL
same,MIC,[5]; S. agaloctiae ATCC 13813 Parent,0.12 µg/mL
same,MIC,[5]; [8],>8 µg/mL
same,MIC,[5]; [9],>8 µg/mL
same,MIC,[5]; [10],>8 µg/mL
same,MIC,[5]; [11],>8 µg/mL
same,MIC,[5]; [12],0.015 µg/mL
same,MIC,[5]; [13],>8 µg/mL
same,MIC,[5]; [14],>8 µg/mL
same,MIC,[5]; [15],>8 µg/mL
same,MIC,[5]; [16],>8 µg/mL
same,MIC,[5]; S. pyogenes ATCC 49399 Parent,0.06 µg/mL
same,broth microdilution MIC of selected colonies relative to parent strain,[5]; colonies selected at 4× and 8× the MIC,several-fold higher
